Data from US20170251655A2, “COMPOSITIONS AND METHODS FOR CAPTURING, KILLING OR REPELLING BED BUGS” (OLFACTOR LABORATORIES, INC., priority 2014, published 2017).
Where a name gives a salt, the structure may show the parent alone.

Columns and labels:
[1] = test system: bed bug (Cimex lectularius); assay: Bed bug repellency assay (filter paper harborage, petri dish); assay type: in vivo; details: for % Repellency / Repellency Category: individual compounds; for % Repellency: 10 microliters compound + 90 microliters isopropyl alcohol on filter paper tent, 10 bed bugs, 5 minutes, vs control; for Repellency Category: category from % repellency; for Ind % Rep (percent repellency of the individual compound): values obtained in Example 1 for the individual compound of a blend
Experimental: Compounds and blends of the present invention were assayed for their ability to modify bed bug (Cimex lectularius) behavior using a bed bug repellency assay. This assay takes advantage of the bed bug's natural instinct to seek harborage. Two petri dishes were obtained and the inner areas of each were sanded down (leaving the perimeter smooth.) Talc was applied on the perimeter and on the inside walls of the petri dishes with a small paint brush to prevent bed bugs from escaping. A cut off top portion of a plastic cup was placed upside down in the center of one petri dish to create a holding arena for the bed bugs. A large plastic secondary container was gathered and a paper towel was laid down inside the bottom. The petri dish was then placed inside and ten bed bugs were placed inside the cut off portion of the cup.
Next, two pieces of filter paper were cut down the middle to yield 4 equally sized halves. Three pieces were placed inside a glass dish […] and the remaining piece was placed in a separate dish. All four pieces were folded down the middle to create a “tent” or “harborage” when laid such that the folded crease faced up. 100 microliters of isopropyl alcohol was pipetted into three pieces of filter paper (all housed in the first glass dish.) In a separate 4 ml vial, 90 microliters of isopropyl alcohol was combined and vortexed with 10 microliters of the compound or compound combination being tested. 100 microliters of this solution [comprising a total of […] of compound(s)] was pipetted onto the filter paper in the separate dish. All filter papers were then allowed to dry. Once dry, experiments were conducted first with two filter paper halves comprising only the isopropyl alcohol (control experiment) and then with the remaining filter paper halves [one with only isopropyl alcohol and one comprising the test compound(s).] Filter paper halves were placed on opposing sides of experimental petri dishes and bed bugs were allowed to move freely within the dishes by removal of the plastic cup top. Movement was allowed to continue for 5 minutes before the number bed bugs beneath each filter paper tent was recorded.

[2] = test system: bed bug (Cimex lectularius); assay: Bed bug threshold assay (mouse bait, treated filter paper on acrylic rod bridges); assay type: in vivo; details: 90 μl isopropyl alcohol + 10 μl testing compound on filter paper; bed bugs crossing treated vs control; mouse as bait; 10 minutes
Experimental: Compounds and blends of the present invention were assayed for their ability to modify bed bug (Cimex lectularius) behavior using a bed bug threshold assay. Three interceptors were laid side by side and acrylic rods were stuck on to the sides with putty so that they went from interceptor to interceptor forming bridges. Paper towels sections of 6 inches by 2 inches were placed so that they hung off of the ends of the acrylic rods to form harborage for bed bugs. Next, 125 mm pieces of Whatman Filter paper treated either with the compound of interest (90 μl isopropyl alcohol+10 μl testing compound) or with control solution of 100 μl isopropyl alcohol were stuck to the top of the acrylic rods with the compound impregnated filter on one rod and control impregnated filter on the other. In the middle interceptor a mouse was placed as bait for the bed bugs. In either outside interceptors 10 bed bugs each were placed in holding dishes, allowed to equilibrate for 10 minutes then released on the harborage. Video footage at 1 second time intervals was obtained for 10 minutes then analyzed for bed bug movements. Repellency of any given compound or blend was calculated by counting how many bed bugs traversed the acrylic rods across either the treated or the control Whatman filter paper. Percent repellency was determined by comparing the number of bed bugs which crossed the treated Whatman filter paper to the number of bed bugs which crossed the control Whatman filter paper.

[3] = test system: bed bug (Cimex lectularius); assay: Bed bug repellency assay (filter paper harborage, petri dish); assay type: in vivo; details: statement in the description, test not named
bed bugs [4] = assay: Bed bug luring assay (baited cup, overnight); assay type: in vivo; details: for Attractant Category: category from attractant activity value; for Att Act (attractant activity value): percentage of 10 bed bugs in baited cup, cottonball with 100 microliters compound or combination solution, overnight, dark
Experimental: Assays were conducted to measure the ability of compounds and compound combinations to attract bed bugs. A testing arena habitat comprising a small plastic container was placed inside of a larger, secondary container. The top half inch was removed from two bathroom sized plastic cups and each cup was placed on opposite sides of the testing arena habitat, one inch away from the wall. Each outer part of the cup was textured using sandpaper, as bed bugs cannot climb smooth surfaces. A paper towel was used to line the floor of the testing arena habitat. The top, removed portion of one of the cups was placed mouth side down in the center of the arena. In one of the cups, a cottonball was placed and treated with 100 microliters of compound or compound combination solution [comprising a total of […] of compound(s).] Ten bed bugs were placed within the center cut off cup top and the testing arena habitat was covered and placed within a dark, climate controlled room overnight.
The next day, the number of bed bugs that crawled into the baited cup were recorded and the attractant activity value was calculated. As used herein, the attractant activity value represents the percentage of bugs that crawled into the baited cup as compared to the total number of bed bugs. In the Table, “Att Act” refers to attract activity value.

C. lectularius = details: population of C. lectularius isolated in Arkansas; cited from earlier work
bed bugs [5] = details: study performed in Africa; cited from earlier work

2-methoxy-3(5or6) isopropylpyrazine [BBC006]
% Repellency [1]: 100% | Repellency Category [1]: Very Strong (compounds with a percent repellency value of 80-100% were categorized as very strong repellents) | % Repellency [2]: 100%

C=CCc1ccc(O)c(OC)c1 [BBC002, eugenol]
bed bug repellency, in words [3]: repel bed bugs

O=CCCc1ccccc1 [BBC005, phenyl propyl aldehyde]
% Repellency [1]: 100% | Repellency Category [1]: Very Strong (compounds with a percent repellency value of 80-100% were categorized as very strong repellents) | % Repellency [2]: 74%

COc1ccccc1O [BBC011, guaiacol]
bed bug repellency, in words [3]: repel bed bugs

COC(Cc1ccccc1)OC [BBC012, phenylacetaldehyde dimethyl acetate]
% Repellency [1]: 100% | Repellency Category [1]: Very Strong (compounds with a percent repellency value of 80-100% were categorized as very strong repellents)

COC(/C=C/c1ccccc1)OC [BBC013, cinnamic aldehyde dimethyl acetal]
% Repellency [1]: 90% | Repellency Category [1]: Very Strong (compounds with a percent repellency value of 80-100% were categorized as very strong repellents)

CC(=O)/C=C/C=C(C)C [BBC014, methyl heptadienone]
% Repellency [1]: 87% | Repellency Category [1]: Very Strong (compounds with a percent repellency value of 80-100% were categorized as very strong repellents) | % Repellency [2]: 64%

CCCC1CCC(=O)O1 (stereo not drawn) [BBC021, gamma-heptalactone]
% Repellency [1]: 71% | Repellency Category [1]: Strong (Compounds with a percent repellency value of 60-80% were categorized as strong repellents) | Ind % Rep (percent repellency of the individual compound) [1]: 71% | % Repellency [2]: 91%

N#C/C=C/c1ccccc1 [BBC029, cinnamyl nitrile]
% Repellency [1]: 56% | Repellency Category [1]: Moderate (Compounds with a percent repellency value of 40-60% were categorized as moderate repellents) | Ind % Rep (percent repellency of the individual compound) [1]: 56% | % Repellency [2]: 92%

CCCCCCOC=O [BBC035, hexyl formate]
Attractant Category (bed bugs [4]): Moderate (Compounds or blends with an attractant activity value of 20-40% were categorized as moderate attractants) | Att Act (attractant activity value) (bed bugs [4]): 30%

C/C=C/C(=O)OC [BBC039, methyl crotonate]
Attractant Category (bed bugs [4]): Moderate (Compounds or blends with an attractant activity value of 20-40% were categorized as moderate attractants) | Att Act (attractant activity value) (bed bugs [4]): 20%

COc1cnccn1 [BBC047, 2-methoxypyrazine]
Attractant Category (bed bugs [4]): Moderate (Compounds or blends with an attractant activity value of 20-40% were categorized as moderate attractants) | Att Act (attractant activity value) (bed bugs [4]): 30%

COC(=O)CCC(C)=O [BBC049, methyl levulinate]
Attractant Category (bed bugs [4]): Mild (Compounds or blends with an attractant activity value of 10-20% were categorized as mild attractants) | Att Act (attractant activity value) (bed bugs [4]): 10%

CCC(=O)OCCC(C)C [BBC051, isoamyl propionate]
Attractant Category (bed bugs [4]): Mild (Compounds or blends with an attractant activity value of 10-20% were categorized as mild attractants) | Att Act (attractant activity value) (bed bugs [4]): 10%

CC1=C2CCC(C)CC2OC1=O (stereo not drawn) [BBC054, menthalactone]
% Repellency [2]: 95%

CCCC(=O)CCC [BBC057, heptanone-4]
% Repellency [2]: 38%

CSC(C)=O [BBC060, methanethiol acetate]
Attractant Category (bed bugs [4]): Moderate (Compounds or blends with an attractant activity value of 20-40% were categorized as moderate attractants) | Att Act (attractant activity value) (bed bugs [4]): 20%

C/C=C(\C)C=O [BBC062, trans-2-methyl-2-butenal]
Ind % Rep (percent repellency of the individual compound) [1]: 0%

CCCC(C)=O [BBC065, 2-pentanone]
Attractant Category (bed bugs [4]): Moderate (Compounds or blends with an attractant activity value of 20-40% were categorized as moderate attractants) | Att Act (attractant activity value) (bed bugs [4]): 30%

COc1nccnc1C [BBC067, 2-methoxy-3-methylpyrazine]
Attractant Category (bed bugs [4]): Mild (Compounds or blends with an attractant activity value of 10-20% were categorized as mild attractants) | Att Act (attractant activity value) (bed bugs [4]): 10%

O=C1CCCC1 [BBC069, cyclopentanone]
Attractant Category (bed bugs [4]): Strong (Compounds or blends with an attractant activity value of 40-60% were categorized as strong attractants) | Att Act (attractant activity value) (bed bugs [4]): 50%

CCCOC=O [BBC070, propyl formate]
Attractant Category (bed bugs [4]): Moderate (Compounds or blends with an attractant activity value of 20-40% were categorized as moderate attractants) | Att Act (attractant activity value) (bed bugs [4]): 30%

Clc1ccc(C(c2ccc(Cl)cc2)C(Cl)(Cl)Cl)cc1 [DDT, dichlorodiphenyltrichloroethane]
LD50 (C. lectularius): 100,000 ppm | bed bug activity level after treatment (bed bugs [5]): higher activity level

methoxy cinnamic aldehyde [BBC046]
% Repellency [1]: 23% | Repellency Category [1]: Mild (Compounds with a percent repellency value of 20-40% were categorized as mild repellents) | % Repellency [2]: 92%

ultrazur [BBC016]
% Repellency [1]: 84% | Repellency Category [1]: Very Strong (compounds with a percent repellency value of 80-100% were categorized as very strong repellents) | % Repellency [2]: 64%
